Test results reported in PubChem BioAssay (NCI).
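Interpolation was linear, between the two tested concentrations surrounding the appropriate level; five concentrations were tested over 48 hours in 96-well plates. At the TGI there is no net growth.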

What was measured:
Test in all cases: NCI anticancer screen, dose series, 48 h
UACC-62 melanoma = system: UACC-62 melanoma
HCC-2998 colon = system: HCC-2998 colon
DU-145 prostate = system: DU-145 prostate
M14 melanoma = system: M14 melanoma
SK-MEL-5 melanoma = system: SK-MEL-5 melanoma
BT-549 breast = system: BT-549 breast
OVCAR-4 ovarian = system: OVCAR-4 ovarian
EKVX NSCLC = system: EKVX NSCLC
MALME-3M melanoma = system: MALME-3M melanoma
KM12 colon = system: KM12 colon

Row | SMILES | TGI (UACC-62 melanoma) [µM] | TGI (HCC-2998 colon) [µM] | TGI (DU-145 prostate) [µM] | TGI (M14 melanoma) [µM] | TGI (SK-MEL-5 melanoma) [µM] | TGI (BT-549 breast) [µM] | TGI (OVCAR-4 ovarian) [µM] | TGI (EKVX NSCLC) [µM] | TGI (MALME-3M melanoma) [µM] | TGI (KM12 colon) [µM]
1 | Brc1ccc2nc(-c3cccs3)nc(N3CCN(c4ccccc4)CC3)c2c1 | > 100 | > 100 | > 100 | > 100 | > 100 | > 100 | > 100 | > 100 | > 100 | > 100
2 | CCCC(=O)Oc1c2ccsc2c(OC(=O)CCC)c2ccsc12 | 2.07 | 6.71 | 1.47 | > 12.8 |  | 2.83 | 5.7 | 5.2 | 0.699 | 13.8
3 | CC(C)(C)OC(=O)NCC(c1c[nH]c2cc(Br)ccc12)c1c[nH]c2cc(Br)ccc12 | 30.1 | 38.4 | 31.7 | 37.3 | 34.2 | 30.3 | 32.9 | 32.8 | 31.7 | 37.3
4 | NS(=O)(=O)c1ccc(N=Nc2ccc(O)cc2)cc1 |  | > 100 | > 100 | > 100 | > 100 | 62.5 | > 100 | > 100 | > 100 | > 100
5 | CN1/C(=C\N=O)C(C)(C)N(O)C1(C)C | > 100 | > 100 | > 100 | > 100 | > 100 | > 100 | > 100 | > 100 | > 100 | > 100
6 | NC1=Nc2ccccc2Sc2nccn21 | > 100 | 43 | > 100 | 32.8 | 33.6 | > 100 | > 100 | > 100 | 34.6 | 69.9
7 | Cn1c2ccccc2c2c3c(c4c5ccccc5n(C)c4c21)C(=O)N(Cc1ccccc1)C3=O | > 100 | > 100 | > 100 | > 100 | > 100 | > 100 | > 100 | > 100 | > 100 | > 100
8 | O=C1NCN(c2ccccc2)C12CCN(CCCN1CCN(CCOC(c3ccccc3)c3ccccc3)CC1)CC2 | 7.69 | 1.02 | 7 | 3.86 | 2.35 | 7.37 | 7.47 | 7.24 | 5.54 | 5.97
9 | CCCCCCCCCCCCCC(=O)OCC(CCS(=O)(=O)O[C@H]1CC[C@@]2(C)C(=CC[C@@H]3C2CC[C@]2(C)C(=O)CCC32)C1)OC(=O)CCCCCCCCCCCCC (some centres undefined) | > 100 | > 100 | > 100 | > 100 | > 100 | > 100 | > 100 | > 100 | > 100 | > 100
10 | CCOc1cc2c(cc1O)C=C[C@@H]1[C@@H]2CC[C@]2(C)[C@@H](O)CC[C@@H]12 | > 43.1 | 18.7 | 26.8 | 28 | 23.6 | > 100 | > 100 | > 100 | 35.6 | 20.9
11 | CCOC(=O)C1=NN(c2ccc(C)cc2)C2(c3ccccc3)C=C(c3ccccc3)N(C)CCN12 (centres undefined) | > 100 | > 100 | > 100 | > 100 | > 100 | > 100 | > 100 | > 100 | > 100 | > 100
12 | CCN(CC)CCOCCOCC1(c2ccc(Cl)c(Cl)c2)CCCCC1 | 22.1 | 14.8 | 22.1 | 3.29 | 4.88 | 26 | 26.2 | 23 | 13.3 | 17.3
13 | CCCC(=O)Nc1cc(/C=C/C(=O)N2CC(CCl)c3ccc([N+](=O)[O-])cc32)n(C)c1 (centres undefined) | > 100 | > 100 | > 100 | > 100 |  | > 100 | > 100 | > 100 | > 100 | > 100
14 | COc1ccc(N[C@H](CS(=O)c2ccc(C)cc2)C(F)(F)F)cc1 (some centres undefined) | > 100 | > 100 | > 100 | > 100 | > 100 | > 100 | > 100 | > 100 | > 100 | > 100
15 | C=CC(=C)CCC(Br)C(C)(C)Br (centres undefined) | > 100 | > 100 | > 100 | > 100 | > 100 | > 100 | > 100 | > 100 | > 100 | > 100
16 | Cc1ccc(F)c2[nH]c(-c3ccccc3)cc(=O)c12 | > 100 | > 100 | > 100 | > 100 | 14.9 | > 100 | > 100 | > 100 | > 100 | > 100

Row | SMILES | TGI (UACC-62 melanoma) [µM] | TGI (HCC-2998 colon) [µM] | TGI (DU-145 prostate) [µM] | TGI (M14 melanoma) [µM] | TGI (SK-MEL-5 melanoma) [µM] | TGI (BT-549 breast) [µM] | TGI (OVCAR-4 ovarian) [µM] | TGI (EKVX NSCLC) [µM] | TGI (MALME-3M melanoma) [µM] | TGI (KM12 colon) [µM]
17 | O=S(=O)(O)c1ccc(N=Nc2ccc(N=Nc3c(O)ccc4ccc(S(=O)(=O)O)cc34)cc2)cc1 | > 100 | > 100 | > 100 | > 100 | > 100 | > 100 | > 100 | > 100 | > 100 | > 100
18 | COP(=O)(/C=C/C(NC(=O)C(Cl)(Cl)Cl)c1ccccc1)OC (centres undefined) | > 100 | > 100 | > 100 | > 100 | > 100 | > 100 | > 100 | > 100 | > 100 | > 100
19 | CSc1c(C(N)=S)c(N)nn1-c1ccccc1 | > 100 | > 100 | > 100 | > 100 | > 100 | > 100 | > 100 | > 100 | > 100 | > 100
20 | COC(=O)c1ccc(Oc2nc3ccc(C(F)(F)F)cc3nc2-c2ccccc2)cc1 | > 100 | > 100 | > 100 |  | > 100 | > 100 | > 100 | > 100 | > 100 | > 100
21 | Cc1cc(-c2nc3ccc(F)cc3s2)ccc1NC(=O)C(N)CCCCN (centres undefined) | 24.6 | 21.4 | 26.2 | 6.57 | 20.4 | 28.3 | 24.6 | 26.5 | 34.1 | 4.87
22 | COc1ccc2nc(N/N=C/c3ccc(C)s3)cc(C)c2c1 | 35.4 | 33.5 | 34.7 | 37.7 | 30.5 | 29.6 | 48.7 | 87.9 | 58.7 | 39.8
23 | C[C@H](CCC(=O)O)[C@H]1CC[C@H]2[C@@H]3[C@H](O)[C@H](O)[C@@H]4C[C@H](O)CC[C@]4(C)[C@H]3CC[C@]12C | > 100 | > 100 | > 100 | > 100 |  | > 100 | > 100 | > 100 | > 100 | > 100
24 | CC1(C)C(CBr)=[N+]([O-])C(C)(C)N1O | > 10 | > 10 | > 10 | 5.65 | > 10 | 5.43 | 4.23 | > 8.02 | 7.06 | > 10
25 | Cc1ccc(N2C=Nn3c(nc4sc5c(c4c3=O)CCCC5)C2)cc1 | > 100 | > 100 | > 100 | > 100 | > 100 | > 100 | > 100 | > 100 | > 100 | > 100
26 | O=C1/C(=C/c2ccc([N+](=O)[O-])cc2)CCCc2ccccc21 | > 100 | > 100 | > 100 | > 100 |  | > 100 | > 100 | > 100 | > 100 | > 100
27 | Nc1ccc2nc3n(c2c1)C(c1c(F)cccc1F)SC3 (centres undefined) | > 100 | > 100 | > 100 | > 100 | > 100 | > 100 | > 100 | > 100 | > 100 | > 100
28 | Cc1c(C)c(S(=O)(=O)N(CCCN)OCCCN)c(C)c2c1OC(C)(C)CC2 | 28 | 21.2 | 29.5 | 27.7 | 29 | 31.4 | 23.6 | 30.4 | 27.8 | 25.6
29 | COC(=O)[C@H](Cc1ccccc1)NC(=O)OCC1OC(n2cc(C)c(=O)[nH]c2=O)CC1N=[N+]=[N-] (some centres undefined) | > 100 | > 100 | > 100 | > 100 | > 100 | > 100 | > 100 | > 100 | > 100 | > 100
30 | C[n+]1c2ccccc2n2c3ccccc3c(NCc3ccco3)c(C#N)c21 | 11.7 | 3.36 | > 22.1 | 5.62 | 13.7 | > 100 | 10.7 | 13.6 | 7.59 | 22
31 | CCCCC1Nc2ccccc2-c2ccnc(Cl)c21 (centres undefined) | 32.2 | 69.4 | 50.3 | 43.1 | 30.3 | 42.6 | 91.5 | 60.5 | 51 | 69
32 | CC12CP(=O)(O)CC1C2(Cl)Cl (centres undefined) | > 100 | > 100 | > 100 | > 100 | > 100 | > 100 | > 100 | > 100 | > 100 | > 100
